Test results: patent EP2841543B1, “IMPROVEMENTS RELATING TO FABRIC FRESHNESS” (Unilever PLC, priority 2012, dated 2013)

Assay: Production and decomposition of squalene hydroperoxides with Rose Bengal and metal ion catalyst, monitored by HPLC
Method: Aldrich), 10 ml of acetone and 200 µl of Rose Bengal solution (2 mg/ml). Rose Bengal (4,5,6,7-tetrachloro-2',4',5',7'-tetraiodofluorescein) is a singlet-oxygen photobleach. Air was bubbled through the solution over the whole of the 3 hour monitoring period without the metal ion catalyst, under irradiation by a xenon lamp to simulate day-light. […] The reaction monitored by HPLC using via UV. detection at 230 nm and 260 nm and actonitrile was the mobile phase. The first HPLC measurement taken was at t=0 (before addition of Rose Bengal). Typically the squalene peak was eluted at 15 minutes, and the hydroperoxides eluted at times between 2-10 minutes. For the purpose of the experiment the hydroperoxide peaks at 3 and 5.7 minutes after starting the column were monitored for any change in relative peak height.

[1] = time 1.5 h, RB None, IronMeN4py Yes (5 mg catalyst added after 90 minutes)
[2] = time 1.0 h, RB Yes, IronMeN4py None, squalene in acetone, air, xenon lamp, 10 °C
[3] = time 3.0 h, RB Yes, IronMeN4py None, squalene in acetone, air, xenon lamp, 10 °C

| Compound | Relative Peak Height at t=3 minutes [1] | Relative Peak Height at t=5.7 minutes [1] | Relative Peak Height at t=3 minutes [2] | Relative Peak Height at t=5.7 minutes [2] | Relative Peak Height at t=3 minutes [3] | Relative Peak Height at t=5.7 minutes [3] |
| --- | --- | --- | --- | --- | --- | --- |
| CC(c1ccccn1)(c1ccccn1)N(Cc1ccccn1)Cc1ccccn1.[Cl-].[Cl-].[Fe+2] [IronMeN4py, iron(II) N,N-bis(pyridine-2-yl-methyl)-1,1-bis(pyridine-2-yl)-1-aminoethane dichloride] | 0 | 300 | – | – | – | – |
| O=C1OC2(c3cc(I)c(O)c(I)c3Oc3c2cc(I)c(O)c3I)c2c(Cl)c(Cl)c(Cl)c(Cl)c21 [RB, 4,5,6,7-tetrachloro-2',4',5',7'-tetraiodofluorescein] | – | – | 600 | 2100 | 2000 | 2100 |
